Laboratory results reported in patent US8148371B2, “Adenine compound and use thereof” (Dainippon Sumitomo Pharma Co., Ltd., priority 2002, dated 2012).

Assays:
cells of rat spleen = assay: cells; type: cell-based, SD rat; details: for minimal effective concentration: 24 h, read-out: Minimum effective concentration (interferon inducing activity)
[1] = Metabolic stability on liver S9 of rat; details: rat liver S9, test compound 1 μM, 37° C.
Experimental: The compound of the present invention is added to liver S9 solution, and the mixture is incubated at 37±0.5° C. for 5 minutes to 2 hours. By quantitatively analyzing at the definite interval the amount of the compound of the present invention remaining in the liver S9 solution with HPLC (high performance liquid chromatography), etc., the constant of quenching velocity is calculated and the half life is calculated.
The reaction on river S9 of a rat was carried out on a 96-well plate by using a robot for screening by Tecan Company. S9 solution was prepared by adding to 10 ml of liver S9 of a rat, 20 ml of 250 mM Kpi (pH 7.4) and 20 ml of deionized water. Cofactor solution was prepared by dissolving NADPH (220 mg) in deionized water (40.5 ml) to give finally a 6 mM solution. IS (Internal Standard) solution was prepared by adding 300 μL of IS solution (1 mM DMSO solution) to 30 ml of acetonitrile solution (100 times dilution). The test compound (1 μM DMSO solution) was dissolved in an incubator at 37° C., 35 μL of it was poured into each well of a 96-well plate (24 samples/plate and then, plates (a sample plate, a 96 well-plate for dilution, deep well plates for reaction and recovering, a plate for extraction of the solid phase) and the test samples (S9 solution, Cofactor solution, IS (Internal Standard) solution, Stop solution, acetonitrile for elution) were set to the specified position in the booth of the robot. The reaction started (the concentration of the test compound was 1 μM) and the mixture was incubated at 37° C. under stirring. The solid phase was extracted and at the same time the internal standard for analysis was added. To the recovered sample (200 μL/well) was added 50 μL of acetonitrile per each well and to 2 plates of FALCON Deep well were poured 100 μL of the solution per well. By subjecting to the LC/MS analysis, the chromatogram of the test sample and the internal standard were described and the peak area was calculated. And then, the stability (residual rate after reaction) was calculated by the internal standard method.

Structure (SMILES)	minimal effective concentration (cells of rat spleen) [µM]	Residual rate [1] [%]	Minimum effective concentration (interferon inducing activity) (cells of rat spleen) [nM]
CCCCOc1nc(N)c2nc(O)n(Cc3ccc(C(=O)OC)c(C(=O)OC)c3)c2n1 [Example 90, 2-Butoxy-9-(3,4-dimethoxycarbonylbenzyl)-8-hydroxyadenine]	0.0003	3	–
Nc1nc(CC(=O)N2CCOCC2)nc2c1nc(O)n2Cc1ccccc1 [Example 110, 9-Benzyl-8-hydroxy-2-(morpholinocarbonylmethyl)adenine]	0.1	–	–
CCCCOc1nc(N)c2nc(O)n(Cc3ccc(SC4CCOC4=O)nc3)c2n1 (centres unmarked) [Example 93]	–	–	3
CCCCOc1nc(N)c2nc(O)n(Cc3ccc(N4CCC(C(=O)O)CC4)nc3)c2n1 [compound 21, reference compound]	0.003	–	–
COC(=O)c1ccc(CSc2nc(N)c3nc(O)n(Cc4ccccc4)c3n2)cc1 [Example 104, 9-Benzyl-8-hydroxy-2-[(4-methoxycarbonylbenzyl)thio]adenine]	0.1	–	–
CCCCOc1nc(N)c2nc(O)n(Cc3ccc(CC(=O)OCCN(C)C)cc3)c2n1.Cl [Example 72, 2-Butoxy-8-hydroxy-9-{4-(2-dimethylaminoethoxycarbonyl)methylbenzyl}adenine hydrochloride]	–	4	–
Nc1nc(SCc2cccc(C(=O)O)c2)nc2c1nc(O)n2Cc1ccccc1 [compound 34, 9-Benzyl-8-hydroxy-2-[(3-carboxybenzyl)thio]adenine, reference compound]	0.3	–	–
Nc1nc(SCc2cccc(CC(=O)O)c2)nc2c1nc(O)n2Cc1ccccc1 [compound 36, 9-Benzyl-8-hydroxy-2-[(3-carboxymethylbenzyl)thio]adenine, reference compound]	3	–	–
CCCCOc1nc(N)c2nc(O)n(Cc3ccc(CC(=O)N(C)C)cc3)c2n1 [Example 78, 2-Butoxy-8-hydroxy-9-(4-dimethylcarbamoylmethylbenzyl)adenine]	3e-05	–	–
Nc1nc(OCC(=O)O)nc2c1nc(O)n2Cc1ccccc1 [compound 16, 9-Benzyl-8-hydroxy-2-calboxylmethoxyadenine, reference compound]	1	–	–
CCCCOc1nc(N)c2nc(O)n(Cc3ccc(CC(N)=O)cc3)c2n1 [Example 76, 2-Butoxy-8-hydroxy-9-(4-carbamoylmethylbenzyl)adenine]	0.0001	–	–
COC(=O)CCc1nc(N)c2nc(O)n(Cc3ccc(CC(=O)OC)cc3)c2n1 [Example 67, 8-Hydroxy-2-(2-methoxycarbonylethyl)-9-(4-methoxycarbonylmethylbenzyl)adenine]	0.001	0	–
Nc1nc(SCC(=O)N2CCOCC2)nc2c1nc(O)n2Cc1ccccc1 [Example 52, 9-Benzyl-8-hydroxy-2-(morphorinocarbonylmethyl)thioadenine]	–	24	–
CCCCOc1nc(N)c2nc(O)n(Cc3ccc(N4CCC(C(=O)OC)CC4)nc3)c2n1 [Example 87, 2-Butoxy-8-hydroxy-9-{6-(4-methoxycarbonyl-1-piperidyl)-3-pyridylmethyl}adenine]	0.001	–	–
CCCCOc1nc(N)c2[nH]c(=O)n(Cc3cccc(CCC(=O)OC)c3)c2n1 [Example 84, 2-Butoxy-8-hydroxy-9-(3-methoxycarbonylethylbenzyl)adenine]	0.01	1	–
CCCCOc1nc(N)c2nc(O)n(Cc3ccc(CC(=O)NC)cc3)c2n1 [Example 77, 2-Butoxy-8-hydroxy-9-(4-methylcarbamoylmethylbenzyl)adenine]	0.0003	–	–
Nc1nc(CC(=O)OCCF)nc2c1nc(O)n2Cc1ccccc1 [Example 109, 9-Benzyl-2-(2-fluoroethoxycarbonyl)methyl-8-hydroxyadenine]	0.03	0	–
CC(C)OC(=O)Cc1nc(N)c2nc(O)n(Cc3ccccc3)c2n1 [Example 108, 9-Benzyl-8-hydroxy-2-(isopropoxycarbonylmethyl)adenine]	0.03	3	–
CCCCOc1nc(N)c2nc(O)n(Cc3ccc(CN4CCOCC4)cc3)c2n1 [Example 79, 2-Butoxy-8-hydroxy-9-(4-morpholinomethylbenzyl)adenine]	0.0003	17	–
Nc1nc(SCc2ccc(CC(=O)O)cc2)nc2c1nc(O)n2Cc1ccccc1 [compound 37, 9-Benzyl-8-hydroxy-2-[(4-carboxymethylbenzyl)thio]adenine, reference compound]	1	–	–
CCCCOc1nc(N)c2nc(O)n(Cc3ccc(OCC(=O)OC)c(Br)c3)c2n1 [Example 23, 2-Butoxy-8-hydroxy-9-{3-bromo-4-(methoxycarbonylmethoxy)benzyl}adenine]	0.1	–	–
CCCCOC(=O)Cc1nc(N)c2nc(O)n(Cc3ccccc3)c2n1 [Example 107, 9-Benzyl-2-butoxycarbonylmethyl-8-hydroxyadenine]	0.1	3	–

Structure (SMILES)	minimal effective concentration (cells of rat spleen) [µM]	Residual rate [1] [%]	Minimum effective concentration (interferon inducing activity) (cells of rat spleen) [nM]
COCCOc1nc(N)c2[nH]c(=O)n(Cc3cccc(CC(=O)OC)c3)c2n1 [Example 96, 8-Hydroxy-9-(3-methoxycarbonylmethylbenzyl)-2-(2-methoxyethoxy)adenine]	0.003	0	–
CCCCOc1nc(N)c2nc(O)n(Cc3ccc(C(C)C(=O)OC)cc3)c2n1 (centres unmarked) [Example 100, 2-Butoxy-8-hydroxy-9-[4-(1-methoxycarbonylethyl)benzyl]adenine]	0.0003	1	–
Cc1ccc(Cn2c(O)nc3c(N)nc(CCC(=O)O)nc32)cn1 [compound 17, reference compound]	0.3	–	–
Nc1nc(CCC(=O)O)nc2c1nc(O)n2Cc1ccc(CC(=O)O)cc1 [compound 18, 2-(2-Carboxylethyl)-9-(4-carboxylmethylbenzyl)-8-hydroxyadenine, reference compound]	3	–	–
COC(=O)CCc1nc(N)c2nc(O)n(Cc3ccc(C)nc3)c2n1 [Example 66, 8-Hydroxy-2-methoxycarbonylethyl-9-{(6-methyl-3-pyridyl)methyl}adenine]	–	0	1
COCCOc1nc(N)c2nc(O)n(Cc3cccc(CC(=O)O)c3)c2n1 [Comparative example 27, 9-(3-Carboxymethylbenzyl)-8-hydroxy-2-(2-methoxyethoxy)adenine, reference compound]	0.3	–	–
CCCCOc1nc(N)c2nc(O)n(Cc3ccc(OC(O)CCC(=O)OC)cc3)c2n1 (centres unmarked) [Example 95, 2-Butoxy-9-{4-(1-hydroxy-3-methoxycarbonylpropoxy)benzyl}-8-hydroxyadenine]	0.001	4	–
CCCCOc1nc(N)c2nc(O)n(Cc3ccc(CC(=O)OC)o3)c2n1 [Example 81, 2-Butoxy-8-hydroxy-9-(5-methoxycarbonylmethylfurfuryl)adenine]	0.001	2	–
COC(=O)Cc1ccc(CSc2nc(N)c3nc(O)n(Cc4ccccc4)c3n2)cc1 [Example 106, 9-Benzyl-8-hydroxy-2-[(4-methoxycarbonylmethylbenzyl)thio]adenine]	0.1	3	–
COC(=O)Cc1cccc(CSc2nc(N)c3nc(O)n(Cc4ccccc4)c3n2)c1 [Example 105, 9-Benzyl-8-hydroxy-2-[(3-methoxycarbonylmethylbenzyl)thio]adenine]	0.3	1	–
Nc1nc(CCC(=O)O)nc2c1nc(O)n2Cc1ccccc1 [Comparative example 15, 9-Benzyl-2-(2-carboxyethyl)-8-hydroxyadenine, reference compound]	1	–	–
CCCCOc1nc(N)c2nc(O)n(Cc3cccc(CCC(=O)O)c3)c2n1 [compound 20, reference compound]	0.03	–	–
CCCCOc1nc(N)c2nc(O)n(Cc3ccc(C(=O)OCc4ccccc4)cc3)c2n1 [Example 14, 2-Butoxy-8-hydroxy-9-(4-benzyloxycarbonylbenzyl)adenine]	–	22	–
CCCCOc1nc(N)c2nc(O)n(Cc3ccc(CC(=O)O)o3)c2n1 [compound 19, 2-Butoxy-9-(5-carboxylmethylfurfuryl)-8-hydroxyadenine, reference compound]	0.03	–	–
CCOC(=O)CCCCSc1nc(N)c2nc(O)n(Cc3ccccc3)c2n1 [Example 57, 9-Benzyl-2-(4-ethoxycarbonylbutyl)thio-8-hydroxyadenine]	–	3	–
CCCCOc1nc(N)c2nc(O)n(Cc3ccc(CCC(=O)OCC)cc3)c2n1 [Example 86, 2-Butoxy-9-(4-ethoxycarbonylethylbenzyl)-8-hydroxyadenine]	–	18	–
CCCCOc1nc(N)c2nc(O)n(Cc3ccc(OC4CCOC4=O)cc3)c2n1 (centres unmarked) [Example 94, 2-Butoxy-9-{4-(γ-butyrolactonyloxy)benzyl}-8-hydroxyadenine]	–	2	–
CCCCOc1nc(N)c2nc(O)n(Cc3ccc(C(N)=O)nc3)c2n1 [Example 83, 2-Butoxy-9-{(6-carbamoyl-3-pyridyl)methyl}-8-hydroxyadenine]	0.0003	–	–
CCCCOc1nc(N)c2nc(O)n(Cc3ccc(C(C)C(=O)O)cc3)c2n1 (centres unmarked) [compound 31, 2-Butoxy-8-hydroxy-9-[4-(1-carboxyethyl)benzyl]adenine, reference compound]	0.03	–	–
CCCCOc1nc(N)c2nc(O)n(Cc3ccc(C(=O)SC)nc3)c2n1 [Example 82, 2-Butoxy-8-hydroxy-9-{(6-S-methylthiocarbonyl-3-pyridyl)methyl}adenine]	–	2	100
CCCCOc1nc(N)c2nc(O)n(Cc3ccc(C(=O)O)c(C(=O)O)c3)c2n1 [compound 23, 2-Butoxy-9-(3,4-dicarboxylbenzyl)-8-hydroxyadenine, reference compound]	0.1	–	–
Nc1nc(SCc2ccc(C(=O)O)cc2)nc2c1nc(O)n2Cc1ccccc1 [compound 35, 9-Benzyl-8-hydroxy-2-[(4-carboxybenzyl)thio]adenine, reference compound]	1	–	–
